From ChEMBL document CHEMBL1201862, “PubChem BioAssay data set” (2004)
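Interpolation was linear, between the two tested concentrations surrounding the appropriate level; five concentrations were tested over 48 hours in 96-well plates. GI50: concentration for 50% inhibition of growth.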 Activity calls are given as the source filed them. Cut-off read from the data, not from the text of the source: active = GI50 up to about 1.1 µM and inactive = higher.

Key:
Test in all cases: NCI anticancer screen, dose series, 48 h
OVCAR-8 = test system: OVCAR-8
SF-268 = test system: SF-268
UO-31 = test system: UO-31
NCI-H23 = test system: NCI-H23
HCC 2998 = test system: HCC 2998
LXFL 529 = test system: LXFL 529
RXF 393 = test system: RXF 393
TK-10 = test system: TK-10
ACHN = test system: ACHN
KM-20L2 = test system: KM-20L2
HCT-15 = test system: HCT-15
SN12C = test system: SN12C
U-251 = test system: U-251
HT-29 = test system: HT-29
SK-MEL-5 = test system: SK-MEL-5
SR = test system: SR
SW-620 = test system: SW-620
OVCAR-5 = test system: OVCAR-5
SK-OV-3 = test system: SK-OV-3
NCI-H522 = test system: NCI-H522
HOP-62 = test system: HOP-62
EKVX = test system: EKVX
NCI-H226 = test system: NCI-H226
SNB-75 = test system: SNB-75
A498 = test system: A498
COLO 205 = test system: COLO 205
HOP-18 = test system: HOP-18
KM12 = test system: KM12
DMS-273 = test system: DMS-273
OVCAR-4 = test system: OVCAR-4
SK-MEL-2 = test system: SK-MEL-2
HL-60 = test system: HL-60
DMS-114 = test system: DMS-114
UACC-62 = test system: UACC-62
M14 = test system: M14
SF-295 = test system: SF-295
A549 = test system: A549
CCRF-CEM = test system: CCRF-CEM
IGROV-1 = test system: IGROV-1
CAKI-1 = test system: CAKI-1
NCI-H460 = test system: NCI-H460
786-0 = test system: 786-0
M19-MEL = test system: M19-MEL
K562 = test system: K562
UACC-257 = test system: UACC-257
Malme-3M = test system: Malme-3M
XF498 = test system: XF498
DLD-1 = test system: DLD-1
RPMI-8226 = test system: RPMI-8226
SF-539 = test system: SF-539
MOLT-4 = test system: MOLT-4
HCT-116 = test system: HCT-116
SNB-78 = test system: SNB-78
SNB-19 = test system: SNB-19
HOP-92 = test system: HOP-92
OVCAR-3 = test system: OVCAR-3
LOX IMVI = test system: LOX IMVI
SK-MEL-28 = test system: SK-MEL-28

Measured: GI50

CC(C)(C)C1CCC(CI)(N=[N+]=[N-])CC1 (stereo not given)
inactive: OVCAR-8 > 100 µM | SF-268 > 100 µM | UO-31 > 100 µM | NCI-H23 > 100 µM | HCC 2998 > 100 µM | LXFL 529 > 100 µM | RXF 393 > 100 µM | TK-10 > 100 µM | ACHN > 100 µM | KM-20L2 > 100 µM | SN12C > 100 µM | U-251 > 100 µM | HT-29 > 100 µM | SK-MEL-5 > 100 µM | SR 33.7 µM | SW-620 > 100 µM | OVCAR-5 > 100 µM | SK-OV-3 > 100 µM | NCI-H522 > 100 µM | HOP-62 > 100 µM | EKVX > 100 µM | NCI-H226 > 100 µM | SNB-75 > 100 µM | A498 > 100 µM | COLO 205 > 100 µM | HOP-18 > 100 µM | KM12 > 100 µM | DMS-273 > 100 µM | OVCAR-4 > 100 µM | SK-MEL-2 61.1 µM | HL-60 42.8 µM | DMS-114 > 100 µM | UACC-62 > 100 µM | M14 > 100 µM | SF-295 > 100 µM | A549 > 100 µM | CCRF-CEM > 100 µM | IGROV-1 > 100 µM | CAKI-1 > 100 µM | NCI-H460 > 100 µM | 786-0 > 100 µM | M19-MEL 99.1 µM | K562 > 100 µM | UACC-257 > 100 µM | Malme-3M > 100 µM | XF498 42.5 µM | DLD-1 > 100 µM | RPMI-8226 79.1 µM | SF-539 > 100 µM | MOLT-4 > 100 µM | HCT-116 > 100 µM | SNB-78 > 100 µM | SNB-19 > 100 µM | HOP-92 > 100 µM | OVCAR-3 > 100 µM
> 100 µM: HCT-15

O=C1/C(=C/c2cccc([N+](=O)[O-])c2)COc2ccc(Br)cc21
inactive: OVCAR-8 > 100 µM | SF-268 > 100 µM | UO-31 95.5 µM | NCI-H23 > 100 µM | HCC 2998 > 100 µM | LXFL 529 > 100 µM | LOX IMVI 37.2 µM | RXF 393 > 100 µM | TK-10 > 100 µM | ACHN > 100 µM | KM-20L2 > 100 µM | U-251 > 100 µM | HT-29 58.6 µM | SK-MEL-5 > 100 µM | SW-620 42.4 µM | OVCAR-5 > 100 µM | SK-OV-3 > 100 µM | NCI-H522 55 µM | HOP-62 > 100 µM | EKVX > 100 µM | SNB-75 55.7 µM | A498 > 100 µM | COLO 205 > 100 µM | HOP-18 > 100 µM | KM12 > 100 µM | DMS-273 45.2 µM | SK-MEL-2 > 100 µM | HL-60 17.7 µM | DMS-114 65.9 µM | SF-295 > 100 µM | A549 > 100 µM | CCRF-CEM 13.6 µM | IGROV-1 > 100 µM | NCI-H460 > 100 µM | 786-0 90.2 µM | M19-MEL > 100 µM | K562 22.9 µM | UACC-257 > 100 µM | Malme-3M > 100 µM | XF498 > 100 µM | DLD-1 > 100 µM | RPMI-8226 2.24 µM | SF-539 > 100 µM | MOLT-4 26.9 µM | SK-MEL-28 > 100 µM | HCT-116 32.6 µM | SNB-78 > 100 µM | HOP-92 > 100 µM | OVCAR-3 > 100 µM
